# Experimental data reported in PubChem BioAssay AID1918957 (Molecular Pharmacology Branch, DTP, NCI, 2023).
# Several values for one entry are separate records, joined by “and”; a condition that tells them apart may be missing. Equal values may be shown once.
# Tested on: NCI-H1876 complex spheroid viability
# Assay: Anticancer human tumor NCI-H1876 cell line growth inhibition [LSD1];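 also: spheroids exposed to compounds for one week before readout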;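 as to viability, T/C: 100% = DMSO vehicle-treated spheroids so lower means fewer viable cells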
# Details: for viability, T/C: stronger effect = lower value
# Description: Multicellular complex tumor spheroid response to LSD1 Inhibitor Iadademstat in combination with a variety of drugs and investigational agents in selected tumor cell lines
# The current study was undertaken to assess response to LSD1 inhibitors in combination with standard-of-care drugs and investigational agents in solid tumor complex spheroid models as well as in the K-562 leukemia. Complex spheroids include a stromal component modeled by human endothelial cells (HUVEC) and fibroblasts modeled by human mesenchymal stem cells (MSCs). The concentration ranges selected for each drug and investigational agent were based upon clinically achievable concentrations if the clinical Cmax of the agent was known.
# Compounds. The drugs and investigational agents used in this study are listed on Table 1. All of the agents used, including staurosporine (NSC755774) and gemcitabine (NSC613327), were obtained from the Developmental Therapeutics Program, NCI. FDA-approved anticancer drugs are available from the NCI at http://dtp.nci.nih.gov/branches/dscb/oncology_drugset_explanation.html. Drugs and investigational agents were >95% pure by proton nuclear magnetic resonance (NMR) and liquid chromatography/mass spectrometry (LC/MS). Stock solutions were prepared at 400x in DMSO, stored at -70 degrees C, and diluted in fresh medium prior to their use. The final concentration of DMSO in cell culture wells never exceeded 0.25% (v/v). The FDA-approved anticancer drug set is available from the Developmental Therapeutics Program at https://dtp.cancer.gov/organization/dscb/obtaining/available_plates.htm. All drugs and investigational agents were tested over a range starting from a high concentration at or near the clinical Cmax and decreasing in half-log increments. If the clinical Cmax for an agent had not been determined, the highest concentration tested was 10 microM.
# Cell Lines. The patient-derived cancer cell (PDC) lines: 292921-168-R-J2-PDC, K24384-001-R-PDC, and 521955-158-R2-J5-PDC pancreatic carcinomas, 556581-035-R-J1 ovarian carcinoma, 324938-238-R-J1-PDC, 855422-203-R-J1-PDC and 883617-216-R-J1-PDC urothelial bladder carcinomas, 743489-274-T-PDC renal cell carcinoma, 138582-R-J1 Merkel cell tumor, K60290-347-R-J1 and K57222-313-R-J1-PDC glioblastomas, 653999-131-R-J2-PDC, LG0703-F948-PDC, and 349418-098-R-PDC non-small cell lung carcinomas, 885512-296-R-J2-PDC, 171881-019-R-J1-PDC breast carcinomas and 186277-243-T-J2-PDC and 233499-124-R-J2-PDC colon carcinomas were obtained from the NCI Patient-Derived Models Repository (PDMR, https://pdmr.cancer.gov). The established cell lines NCI/ADR-RES (RRID:CVCL_14520 and OVCAR-5 (RRID:CVCL_1628) ovarian carcinomas, 786-O (RRID:CVCL_1051) and A498 (RRID:CVCL_A498) renal cell carcinoma, NCI-H211 (ATCC, cat. CRL-5824; RRID:CVCL_1529), NCI-H196 (ATCC, cat. CRL-5823, RRID:CVCL_1509), SW 1271 (ATCC, cat. CRL-2177, RRID:CVCL_1716) and NCI-H1876 (ATCC, cat. CRL-5902, RRID:CVCL_1503) small cell lung carcinomas, MDA-MB-231 (RRID:CVCL_0062) and MDA-MB-468 (RRID:CVCL_0419)breast carcinomas (10-12). Pooled donor human umbilical vein endothelial cells (HUVEC, Lonza, cat. CC-2519) and human mesenchymal stem cells (hMSC, Lonza, cat. PT-2501) were purchased from Lonza (Walkersville, MD).
# Cell Culture. All cells were maintained in an incubator at 37 degrees C and 5% CO2 with 95% humidity. The PDC lines were cultured according to standard operating procedures established by the NCI PDMR (https://pdmr.cancer.gov). Briefly all PDCs were thawed and cultured in Matrigel-coated flasks prepared with a working solution of 1X Ham's F-12 nutrient mix, without supplementation (Invitrogen, Waltham, MA, cat. 11765054), 100 U/mL penicillin-streptomycin (Invitrogen, cat. 15140122), and 2.5% Matrigel (Corning Inc., Corning, NY, cat. 354248) for the first three passages. […]
structure (smiles),measurement,setting,value
Nc1ccccc1NC(=O)c1ccc(CNC(=O)OCc2cccnc2)cc1 + NC1CCC(NC2CC2c2ccccc2)CC1,IC50,"curve of first compound, second compound 0.1 µM",0.186 µM
same,IC50,"curve of first compound, second compound 0.316 µM",0.177 µM
same,IC50,"curve of first compound, second compound 1 µM",0.185 µM
same,IC50,"curve of first compound, second compound 3.16 µM",0.17 µM
same,IC50,"curve of first compound, second compound 10 µM",0.179 µM
same,"viability, T/C","second compound 0.1 µM, first compound 0.00949 µM",98.5%
same,"viability, T/C","second compound 0.1 µM, first compound 0.03 µM",109%
same,"viability, T/C","second compound 0.1 µM, first compound 0.0949 µM",90.6%
same,"viability, T/C","second compound 0.1 µM, first compound 0.3 µM",21.2%
same,"viability, T/C","second compound 0.1 µM, first compound 0.949 µM",4.45%
same,"viability, T/C","second compound 0.1 µM, first compound 3 µM",1.28%
same,"viability, T/C","second compound 0.316 µM, first compound 0.00949 µM",113%
same,"viability, T/C","second compound 0.316 µM, first compound 0.03 µM",108%
same,"viability, T/C","second compound 0.316 µM, first compound 0.0949 µM",78.3%
same,"viability, T/C","second compound 0.316 µM, first compound 0.3 µM",26.3%
same,"viability, T/C","second compound 0.316 µM, first compound 0.949 µM",3.15%
same,"viability, T/C","second compound 0.316 µM, first compound 3 µM",1.03%
same,"viability, T/C","second compound 1 µM, first compound 0.00949 µM",114%
same,"viability, T/C","second compound 1 µM, first compound 0.03 µM",115%
same,"viability, T/C","second compound 1 µM, first compound 0.0949 µM",86.2%
same,"viability, T/C","second compound 1 µM, first compound 0.3 µM",23.3%
same,"viability, T/C","second compound 1 µM, first compound 0.949 µM",11.6%
same,"viability, T/C","second compound 1 µM, first compound 3 µM",1.66%
same,"viability, T/C","second compound 3.16 µM, first compound 0.00949 µM",111%
same,"viability, T/C","second compound 3.16 µM, first compound 0.03 µM",104%
same,"viability, T/C","second compound 3.16 µM, first compound 0.0949 µM",80%
same,"viability, T/C","second compound 3.16 µM, first compound 0.3 µM",21.2%
same,"viability, T/C","second compound 3.16 µM, first compound 0.949 µM",2.36%
same,"viability, T/C","second compound 3.16 µM, first compound 3 µM",0.71%
same,"viability, T/C","second compound 10 µM, first compound 0.00949 µM",102%
same,"viability, T/C","second compound 10 µM, first compound 0.03 µM",102%
same,"viability, T/C","second compound 10 µM, first compound 0.0949 µM",86.5%
same,"viability, T/C","second compound 10 µM, first compound 0.3 µM",20.2%
same,"viability, T/C","second compound 10 µM, first compound 0.949 µM",10.6%
same,"viability, T/C","second compound 10 µM, first compound 3 µM",1.74%
CC1(C)CCC(CN2CCN(c3ccc(C(=O)NS(=O)(=O)c4ccc(NCC5CCOCC5)c([N+](=O)[O-])c4)c(Oc4cnc5[nH]ccc5c4)c3)CC2)=C(c2ccc(Cl)cc2)C1,"viability, T/C",compound 0.0316 µM,101% and 99.5%
same,"viability, T/C",compound 0.1 µM,101% and 94.4%
same,"viability, T/C",compound 0.316 µM,101% and 110%
same,"viability, T/C",compound 1 µM,95.4% and 107%
same,"viability, T/C",compound 3.16 µM,31.8% and 19.4%
same,"viability, T/C",compound 10 µM,9.13% and 6.87%
same,IC50,curve of compound,2.27 µM and 2.07 µM
